pIC50: −log10 of the molar value.
Columns and labels:
breast line MDA468 = experiment: In vitro cell culture growth assay (MTS), MDA468; format: cell-based, human; settings: Homo sapiens, 72 h, MDA468 cells, three days after drug treatment
Summary of the method: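 Three-day drug treatment starting 1 day post-plating; viable cells quantified via MTS metabolism (A490); effect normalised to in-plate vehicle controls as % growth.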

prostate line LNCap = experiment: In vitro cell culture growth assay (MTS), LNCap; format: cell-based, human; settings: Homo sapiens, LNCaP, 72 h, LNCap cells, three days after drug treatment;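 further: viable cell density read by absorbance at 490 nm, growth expressed as percent of vehicle-treated cells on the same plate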
PI3K = PI3K (Homo sapiens, UniProt P42336); experiment: Fluorescence polarization assay for PI3K; format: biochemical; settings: PI3Kα; read-out: PI3Kα IC50;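 further: PI3K kinase reaction on PIP2 with ATP, 30-60 min, product sensed by GST-GRP with red probe in fluorescence polarization (mP), controls without enzyme and at zero time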
Chain of PI3K (P42336 whole entry): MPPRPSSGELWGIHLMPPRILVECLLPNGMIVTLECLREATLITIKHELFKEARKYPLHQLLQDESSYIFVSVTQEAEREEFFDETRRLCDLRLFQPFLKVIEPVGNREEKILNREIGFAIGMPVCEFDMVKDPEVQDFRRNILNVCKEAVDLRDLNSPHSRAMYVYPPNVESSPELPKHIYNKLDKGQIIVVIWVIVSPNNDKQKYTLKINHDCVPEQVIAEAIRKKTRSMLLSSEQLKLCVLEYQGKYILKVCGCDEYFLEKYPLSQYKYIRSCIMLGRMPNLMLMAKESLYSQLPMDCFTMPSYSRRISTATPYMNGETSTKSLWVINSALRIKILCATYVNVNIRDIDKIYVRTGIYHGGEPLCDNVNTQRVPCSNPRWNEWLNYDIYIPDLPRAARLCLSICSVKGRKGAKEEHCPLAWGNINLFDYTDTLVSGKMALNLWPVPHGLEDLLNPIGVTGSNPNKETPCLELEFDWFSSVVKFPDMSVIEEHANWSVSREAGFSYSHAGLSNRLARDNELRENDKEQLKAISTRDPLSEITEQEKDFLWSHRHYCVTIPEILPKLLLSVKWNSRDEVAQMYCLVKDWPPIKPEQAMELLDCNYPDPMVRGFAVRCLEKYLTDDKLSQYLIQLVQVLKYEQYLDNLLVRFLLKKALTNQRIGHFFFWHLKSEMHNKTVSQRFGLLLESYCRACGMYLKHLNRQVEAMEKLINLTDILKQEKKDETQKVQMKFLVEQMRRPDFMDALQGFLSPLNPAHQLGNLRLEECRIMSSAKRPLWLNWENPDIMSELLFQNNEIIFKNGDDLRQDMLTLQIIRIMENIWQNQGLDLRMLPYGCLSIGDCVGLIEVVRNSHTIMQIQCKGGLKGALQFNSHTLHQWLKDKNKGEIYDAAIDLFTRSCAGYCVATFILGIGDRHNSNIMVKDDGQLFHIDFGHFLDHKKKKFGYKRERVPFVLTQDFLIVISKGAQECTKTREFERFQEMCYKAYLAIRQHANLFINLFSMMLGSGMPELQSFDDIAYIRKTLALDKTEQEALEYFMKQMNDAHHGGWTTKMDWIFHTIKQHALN
Chain of PI3K (P27986 whole entry partner): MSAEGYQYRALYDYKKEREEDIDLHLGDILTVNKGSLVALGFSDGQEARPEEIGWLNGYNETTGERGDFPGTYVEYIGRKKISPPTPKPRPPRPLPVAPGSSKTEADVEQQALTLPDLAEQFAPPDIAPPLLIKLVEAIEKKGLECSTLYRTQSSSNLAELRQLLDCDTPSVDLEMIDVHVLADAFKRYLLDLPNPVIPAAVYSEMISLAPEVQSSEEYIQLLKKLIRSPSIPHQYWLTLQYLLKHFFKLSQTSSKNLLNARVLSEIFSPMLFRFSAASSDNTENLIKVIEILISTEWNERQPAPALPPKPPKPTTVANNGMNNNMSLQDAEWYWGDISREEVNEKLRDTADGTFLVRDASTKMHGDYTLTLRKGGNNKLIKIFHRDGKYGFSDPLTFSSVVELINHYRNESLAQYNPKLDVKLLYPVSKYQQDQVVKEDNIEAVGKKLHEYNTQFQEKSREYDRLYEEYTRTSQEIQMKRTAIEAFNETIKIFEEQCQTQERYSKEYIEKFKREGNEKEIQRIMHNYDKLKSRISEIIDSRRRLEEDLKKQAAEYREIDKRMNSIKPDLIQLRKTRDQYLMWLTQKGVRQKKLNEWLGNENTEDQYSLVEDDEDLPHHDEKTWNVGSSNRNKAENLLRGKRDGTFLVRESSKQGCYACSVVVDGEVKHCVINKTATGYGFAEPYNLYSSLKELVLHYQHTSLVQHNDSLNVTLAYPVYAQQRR

pIC50 (prostate line LNCap)	pIC50 (PI3K)	Compound	pIC50 (breast line MDA468)
> 7.57	7.20	CNC(=O)Nc1ccc(-c2nc(N3CCOCC3)c3cnn(C4CCN(C(=O)c5ccccc5)CC4)c3n2)cc1 [Compound 580, 1-{4-[1-(1-benzoylpiperidin-4-yl)-4-morpholin-4-yl-1H-pyrazolo[3,4-d]pyrimidin-6-yl]phenyl}-3-methylurea]	7.57
6.30	7.66	CNC(=O)Nc1ccc(-c2nc(N3CCOCC3)c3cnn(C4CCNCC4)c3n2)cc1 [Compound 584, 1-methyl-3-[4-(4-morpholin-4-yl-1-piperidin-4-yl-1H-pyrazolo[3,4-d]pyrimidin-6-yl)phenyl]urea]	5.89
7.51	7.96	O=C(Nc1ccccc1)Nc1ccc(-c2nc(N3CCOCC3)c3cnn(C4CCN(Cc5cccnc5)CC4)c3n2)cc1 [Compound 586, 1-(4-{4-morpholin-4-yl-1-[1-(pyridin-3-ylmethyl)piperidin-4-yl]-1H-pyrazolo[3,4-d]pyrimidin-6-yl}phenyl)-3-phenylurea]	6.66
7.55	7.92	O=C(Nc1ccncc1)Nc1ccc(-c2nc(N3CCOCC3)c3cnn(C4CCN(Cc5cccnc5)CC4)c3n2)cc1 [Compound 587, 1-(4-{4-morpholin-4-yl-1-[1-(pyridin-3-ylmethyl)piperidin-4-yl]-1H-pyrazolo[3,4-d]pyrimidin-6-yl}phenyl)-3-pyridin-4-ylurea]	6.92
6.48	7.05	O=C(Nc1ccc(-c2nc(N3CCOCC3)c3cnn(C4CCN(Cc5cccnc5)CC4)c3n2)cc1)Nc1ccccn1 [Compound 588, 1-(4-{4-morpholin-4-yl-1-[1-(pyridin-3-ylmethyl)piperidin-4-yl]-1H-pyrazolo[3,4-d]pyrimidin-6-yl}phenyl)-3-pyridin-2-ylurea]	5.74
5.92	7.54	CNCCNC(=O)Nc1ccc(-c2nc(N3CCOCC3)c3cnn(C4CCN(Cc5cccnc5)CC4)c3n2)cc1 [Compound 589, 1-[2-(methylamino)ethyl]-3-(4-{4-morpholin-4-yl-1-[1-(pyridin-3-ylmethyl)piperidin-4-yl]-1H-pyrazolo[3,4-d]pyrimidin-6-yl}phenyl)urea]	5.96
7.57	7.82	O=C(Nc1ccncc1)Nc1ccc(-c2nc(N3CCOCC3)c3cnn(C4CCN(C(=O)c5cccnc5)CC4)c3n2)cc1 [Compound 591, 1-(4-{4-morpholin-4-yl-1-[1-(pyridin-3-ylcarbonyl)piperidin-4-yl]-1H-pyrazolo[3,4-d]pyrimidin-6-yl}phenyl)-3-pyridin-4-ylurea]	> 7.57
7.02	6.59	O=C(Nc1ccc(-c2nc(N3CCOCC3)c3cnn(C4CCN(C(=O)c5cccnc5)CC4)c3n2)cc1)Nc1ccccn1 [Compound 592, 1-(4-{4-morpholin-4-yl-1-[1-(pyridin-3-ylcarbonyl)piperidin-4-yl]-1H-pyrazolo[3,4-d]pyrimidin-6-yl}phenyl)-3-pyridin-2-ylurea]	6.15
5.30	7.35	CNCCNC(=O)Nc1ccc(-c2nc(N3CCOCC3)c3cnn(C4CCN(C(=O)c5cccnc5)CC4)c3n2)cc1 [Compound 593, 1-[2-(methylamino)ethyl]-3-(4-{4-morpholin-4-yl-1-[1-(pyridin-3-ylcarbonyl)piperidin-4-yl]-1H-pyrazolo[3,4-d]pyrimidin-6-yl}phenyl)urea]	5.05
5.70	5.78	Nc1ccc(-c2nc(N3CCOCC3)c3cnn(C4CCN(Cc5ccccc5)CC4)c3n2)cc1F [Compound 594, 4-[1-(1-benzylpiperidin-4-yl)-4-morpholin-4-yl-1H-pyrazolo[3,4-d]pyrimidin-6-yl]-2-fluoroaniline]	5.40

— patent publication US20080234262A1 (Wyeth, priority 2007, published 2008)
